This experiment concerns rats. Nature of the experiment: forced swimming test in rats. Format: in vivo, rat. As to conditions: percentage of inhibition against the control group. As to the method: The antidepressive efficacy has been tested by means of the so-called “forced swimming test” in rats. In this test rats are brought into an impasse during a defined period of five minutes (glass cylinder filled with water). In this test the rats reacted with a rigour referred to as immobilization time, which is interpreted to correlate with a depression. If the rats are treated with an antidepressively effective medicament prior to the test, the immobilization time decreases. Since other psychopharamaca such as anxiolytics or neuroleptics are not efficacious in this test, this test system is well suitable to detect antidepressive effects (R. D. Porsolt et al., Eur. J. Pharmacol. 47, 379-391 (1978); R. D. Porsolt et al., Adv. Pharmacol. Sci., 137-159 (1991)). In order to be efficacious, each of the heretofore known antidepressive agents has to be administered over a period of several days in this test, like in the case of patients. The test animals were treated either with the test substance or with a solvent only for control purposes or with the tricyclic antidepressive agent Imipramine in order to compare the efficacy. Imipramine was selected as the standard comparative substance, because it is one of the strongest antidepressive agents both in psychiatric practice and in animal model.
Tables 1 to 3 exemplarily show the efficacy of three different Opuntia extracts compared to the tricyclic antidepressive agent Imipramine as determined after a treatment period of 9 days. […] In this case, the inhibition was determined already after a treatment period of 3 days. For comparison purposes, the inhibition of the immobility was represented as the percentage of inhibition against the control group in each of the tables.

Several values for one entry are separate records, joined by “and”; a condition that tells them apart may be missing. Identical values can stand only once.

Here are results for two compounds from patent publication US20070134355A1, “Use of plant parts of prickly pear (opuntia) and/or extracts therefrom for the treatment of depressions” (priority 2003, published 2007).

Regarding `CN(C)CCCN1c2ccccc2CCc2ccccc21` [Imipramine], the Inhibition of immobility by setting is: (dose 20 mg/kg, treatment period of 9 days) 44%; (dose 30 mg/kg, treatment period of 9 days, 30 mg/kg) 64% and 68%.

`COc1ccc(C(CN(C)C)C2(O)CCCCC2)cc1` (stereo not drawn) [Venlafaxine]: under “dose 100 mg/kg, treatment period of 3 days”, the Inhibition of immobility amounted to 25%.
